Source: patent US8269010B2, “3-amino-pyridine derivatives for the treatment of metabolic disorders” (Piramal Healthcare Limited, priority 2006, dated 2012)
Several values for one entry are separate records, joined by “and”; a condition that tells them apart may be missing. Equal values may be shown once.

What was measured:
[1] = system: insulin resistant adipocytes (3T3 L1); assay: In vitro model exhibiting insulin resistance (IR assay): 14C-2-deoxyglucose uptake; type: cell-based; conditions: glucose uptake; for fold induction at 10 µM: Mus musculus, dexamethasone-induced insulin resistant 3T3 L1 adipocytes, test compound 10 μM/mL, vehicle = 1.0, cut off 1.50 fold, read-out: Fold activity (fold activity over vehicle); for % of Rosiglitazone (comparison with Rosiglitazone): insulin resistant 3T3 L1 adipocytes, test compound 10 μM vs Rosiglitazone 0.1 μM
Protocol: The assay was designed as in the reference, British Journal of Pharmacology, 130, 351-58, 2000, the disclosure of which is incorporated by reference for the teaching of the assay. The solution of test compound (10 μM/mL) was prepared in DMSO. […] Differentiation into adipocytes was induced by the known methods as described below. (See, also, J. Biol. […] 3T3 L1 fibroblasts were seeded in 24- or 6-well plates at a density of 0.5−2×10^4 cells/well and were allowed to reach maximal confluency. The confluent fibroblasts were exposed to culture medium for 2 days. […] The mature adipocytes were exposed to dexamethasone, 100 nM added in ethanol, in culture medium and incubated for 2 days. […] The test compound was also present during this period. After 3-4 hours, the medium was aspirated and replaced with Kreb's Ringer phosphate (KRP) buffer at pH 7.4 and with human/porcine insulin, 200 nM. The cells were incubated for 30 minutes at 37° C. […] After exactly 5 minutes, the plates were transferred to ice trays and medium was rapidly aspirated. The cell layer was washed twice with ice-cold phosphate buffered saline, (PBS), pH 7.4. […] Non-specific glucose uptake was assayed in wells exposed to cytochalasin B, inhibitor of glucose transport. […] Statistical analysis was performed using unpaired t-test.

Mouse PPARγ = target: T1, Mouse PPARγ (Mus musculus, UniProt P37238); assay: Mouse PPARγ assay (TransAM PPARγ ELISA, 3T3-L1 fibroblasts); type: cell-based; conditions: test compound 50 μM, 72 hrs
T1 construct: endogenous in cells; host or cells: 3T3-L1 fibroblasts
T1 sequence (P37238 1-505): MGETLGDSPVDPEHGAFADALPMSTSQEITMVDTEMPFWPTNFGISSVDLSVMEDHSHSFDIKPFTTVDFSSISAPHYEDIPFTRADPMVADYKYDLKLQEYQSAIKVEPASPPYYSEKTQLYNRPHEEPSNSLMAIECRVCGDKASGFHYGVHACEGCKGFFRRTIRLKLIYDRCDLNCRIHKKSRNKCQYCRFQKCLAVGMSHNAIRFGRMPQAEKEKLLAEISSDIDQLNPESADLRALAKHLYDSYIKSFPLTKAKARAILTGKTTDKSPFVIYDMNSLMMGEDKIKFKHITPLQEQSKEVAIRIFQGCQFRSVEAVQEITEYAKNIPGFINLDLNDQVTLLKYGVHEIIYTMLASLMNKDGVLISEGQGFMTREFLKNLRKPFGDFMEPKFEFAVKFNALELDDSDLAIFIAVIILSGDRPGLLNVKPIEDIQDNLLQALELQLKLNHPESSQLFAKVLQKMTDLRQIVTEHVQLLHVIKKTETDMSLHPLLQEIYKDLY
Protocol: The assay was designed as in the reference, Blood, 104(5), 1361-8, 2004, the disclosure of which is incorporated by reference for the teaching of the assay.
3T3-L1 fibroblasts were seeded in 6-well plates at a density of 4×10^4 cells/well and cultured in DMEM containing 10% calf serum. After 4-5 days, when the cells become confluent, each of test compound was added (from a 20 mM stock in DMSO) to the final concentration of 50 μM in DMEM supplemented with 10% FCS. […] The plates were incubated for 72 hrs at 37° C. in a CO2 incubator with fresh medium containing test substances added after first 48 hrs. After 72 hrs, the medium was removed; the cell layer was washed and processed for the PPARγ assay as per the instruction of the manufacturer (Active Motif, North America, California, USA). PPARγ activation was determined using 96-well ELISA assay as per the instruction manual (TransAM PPARγ. Active Motif, Cat 0.40196). Assay Readout was absorbance output from spectrophotometer for the mouse PPARγ assay. Luminescence data output was recorded for the human PPARγ assay.

[2] = system: genetically diabetic db/db BL/6J mice; assay: Screening in db/db BL/6J mice: reduction of plasma glucose levels; type: in vivo; conditions: 10 days
Protocol: The protocol was designed as in references. • 1.
The screening of compounds was based on their ability to reduce the plasma glucose levels in genetically diabetic db/db BL/6J mice.
Male db/db mice (obtained from the Animal House of Nicholas Piramal Research Centre, Goregaon, Mumbai, India) were used for this study (body weight in the range of 30-40 g and age is 6-8 weeks) and were kept eight per cage in individually ventilated cages at controlled temperature (22±1° C.) and humidity (45±5%). Food and water were provided ad libitum during their laboratory stay, except for four hours fasting prior to blood sample collection. 12 hours light and dark cycle was followed during the whole study period.
After 4 hours fasting blood samples were collected from mice. Mice showing plasma glucose levels between 300 to 500 mg/dl were divided in groups (8-10 per group) such that the mean plasma glucose levels and variation within the group, for each group, is nearly same. After grouping, mice in respective groups received treatment with 0.5% CMC vehicle, standard compound or test compounds for 10 days.
After 4 hours fasting, mice were anaesthetized using isoflurane (inhalation anesthetic), and blood samples were collected through the retro orbital plexus. Collected blood samples were centrifuged at 7000 rpm for 10 minutes at 4° C.; Separated plasma was used for estimation of plasma glucose using diagnostic kits (Diasys, Germany). Plasma glucose levels of treated groups were normalized with control group using the following formula, which accounted for the changes in control group.
Formula used for normalization was *:{1−[…]}×100.

Human PPARγ = target: T2, Human PPARγ (Homo sapiens, UniProt P37231); assay: Human PPARγ transactivation assay (luciferase reporter, HEK293 cells); type: cell-based; conditions: 48 hours
T2 construct: Human full length PPARγ cDNA was cloned into pSG5 expression vector; expressed in transfected cells; host or cells: HEK293 cells
T2 sequence (P37231 1-505): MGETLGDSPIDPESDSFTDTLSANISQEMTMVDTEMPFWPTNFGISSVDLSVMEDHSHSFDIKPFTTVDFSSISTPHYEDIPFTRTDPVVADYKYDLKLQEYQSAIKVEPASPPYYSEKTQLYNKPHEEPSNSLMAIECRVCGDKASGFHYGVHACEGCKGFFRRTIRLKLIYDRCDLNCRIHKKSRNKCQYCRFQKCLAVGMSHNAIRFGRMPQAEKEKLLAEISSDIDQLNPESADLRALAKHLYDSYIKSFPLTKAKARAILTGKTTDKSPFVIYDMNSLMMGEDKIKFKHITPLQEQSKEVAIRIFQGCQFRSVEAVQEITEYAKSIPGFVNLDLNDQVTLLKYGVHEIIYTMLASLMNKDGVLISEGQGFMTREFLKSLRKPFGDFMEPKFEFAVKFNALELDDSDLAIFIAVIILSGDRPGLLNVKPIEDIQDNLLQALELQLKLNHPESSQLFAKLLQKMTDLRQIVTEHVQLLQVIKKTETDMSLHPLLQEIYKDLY
Protocol: The assay was designed as in the reference, Biochem. Biophys. Res. Comm. 175:865-871, 1991, the disclosure of which is incorporated by reference for the teaching of the assay. Human PPARγ activity was evaluated by transactivation using a luciferase reporter gene. The pBL-TK-luciferase reporter plasmid AOX-3×PPRE-TK-LUC contains three copies of the rat acyl CoA oxidase PPRE cloned upstream of the minimal herpes simplex virus thymidine kinase (TK) promoter. Human full length PPARγ cDNA was cloned into pSG5 expression vector (Stratagene, Lo Jolla, Calif.).
HEK293 cells were seeded in 24 well plates and grown in DMEM supplemented with 10% (v/v) FCS. After 24 hours, they were transfected with 100 ng of hPPARγ receptor and 300 ng of AOX-3×PPRE-LUC reporter construct per well using Fugen 6 transfection reagent (Roche, Indianapolis, Ind.). […] The control was 0.1% DMSO. After 48 hours, transactivation activity was determined by luciferase assay using Steady Glow reagent (Promega, Madison, Wis.).

db/db mice = assay: Evaluation of lipid levels (dyslipidemia) in db/db mice; type: in vivo; conditions: oral bid 15 days
Protocol: The assay was designed as in the reference, Metabolism, 49 (1), 22-31, 2000, the disclosure of which is incorporated by reference for the teaching of the assay. Seven groups of male db/db mice (8 animals per group) were used. […] Body weight was measured daily. On day 15, the animals were deprived of food for 4 hours after the last dose administration. Blood was collected at the end of the 4-hour period using heparinised capillaries by a retro-orbital puncture. Plasma samples were analyzed for glucose, triglyceride, cholesterol, using the autoanalyser.

SMILES	PPARγ activity (% of rosiglitazone) (Mouse PPARγ) [%]	fold induction at 10 µM [1]	% of Rosiglitazone (comparison with Rosiglitazone) [1] [%]	further results
O=S(=O)(Nc1cnc(Oc2cc3ccccc3cn2)c(Cl)c1)c1ccc(Cl)cc1Cl [Example 1, 2,4-Dichloro-N-(5-chloro-6-(isoquinolin-3-yloxy)pyridin-3-yl)benzenesulfonamide]	12.4	2.41 ± 0.06	78.75 ± 3.55	PPARγ activity (% of rosiglitazone) (Human PPARγ): 23%; Normalization with control (plasma glucose) ([2]; 150 mpk od): 43.2 ± 15.7; lowering lipid levels compared with Rosiglitazone (db/db mice): as efficacious as Rosiglitazone; reduction in cholesterol levels (db/db mice; doses higher than 50 mpk): 26%; melting point: 203 to 205 °C
CN(CCOc1ccc(CC2SC(=O)NC2=O)cc1)c1ccccn1 (stereo not shown) [Rosiglitazone, reference compound]	–	–	–	Normalization with control (plasma glucose) ([2]; Rosiglitazone 5 mpk bid): 54.52 ± 4.92 and 107.9 ± 15.1 and 83.6 ± 12.8; Normalization with control (plasma glucose) ([2]; Rosiglitazone 10 mpk od): 93.8 ± 22.7 and 55.0 ± 11.4; decrease in plasma triglyceride levels (db/db mice; Rosiglitazone 5 mpk): 40%; reduction in cholesterol levels (db/db mice; Rosiglitazone 5 mpk): 27%
COc1ccc(S(=O)(=O)Nc2cnc(Oc3cnc4ccccc4c3)c(Cl)c2)cc1 [Example 26, N-(5-Chloro-6-(quinolin-3-yloxy)pyridin-3-yl)-4-methoxybenzenesulfonamide]	–	2.19 ± 0.09	66.48 ± 5.26	PPARγ activity (% of rosiglitazone) (Human PPARγ): 19.3%; Normalization with control (plasma glucose) ([2]; 100 mpk bid): 41.90 ± 3.84
O=S(=O)(Nc1cnc(Oc2cc3ccccc3cn2)c(Cl)c1)c1ccc(Cl)c(Cl)c1 [Example 17, 3,4-Dichloro-N-(5-chloro-6-(isoquinolin-3-yloxy)pyridin-3-yl)benzenesulfonamide]	12.57	1.26 ± 0.02	21.20 ± 1.5	–
O=S(=O)(Nc1cnc(Oc2cc3ccccc3cn2)c(Cl)c1)c1ccc(F)cc1Cl [Example 15, 2-Chloro-N-(5-chloro-6-(isoquinolin-3-yloxy)pyridin-3-yl)-4-fluorobenzenesulfonamide]	0	1.7 ± 0.02	45.25 ± 1.04	–
COc1ccc(S(=O)(=O)Nc2cnc(Oc3cc4ccccc4cn3)c(Cl)c2)cc1 [Example 24, N-(5-Chloro-6-(isoquinolin-3-yloxy)pyridin-3-yl)-4-methoxybenzenesulfonamide]	–	1.8 ± 0.32	46.2 ± 23.8	Normalization with control (plasma glucose) ([2]; 150 mpk od): Inactive
O=S(=O)(Nc1cnc(Oc2cnc3ccccc3c2)c(Cl)c1)c1ccc(F)cc1 [Example 35, N-(5-Chloro-6-(quinolin-3-yloxy)pyridin-3-yl)-4-fluorobenzenesulfonamide]	–	2.44 ± 0.08	62.36 ± 3.51	–

More lines, main results first:

PPARγ activity (% of rosiglitazone) (Mouse PPARγ) [%]	SMILES	fold induction at 10 µM [1]	% of Rosiglitazone (comparison with Rosiglitazone) [1] [%]	further results
8.18	COc1ccc(S(=O)(=O)Nc2cnc(Oc3cnc4ccccc4c3)c(Cl)c2)cc1OC [Example 30, N-(5-Chloro-6-(quinolin-3-yloxy)pyridin-3-yl)-3,4-dimethoxybenzenesulfonamide]	1.84 ± 0.02	–	Normalization with control (plasma glucose) ([2]; 50 mpk bid): 76.2 ± 19.2
18.85	Cc1ccc(S(=O)(=O)Nc2cnc(Oc3cc4ccccc4cn3)c(Cl)c2)cc1 [Example 16, N-(5-Chloro-6-(isoquinolin-3-yloxy)pyridin-3-yl)-4-methylbenzenesulfonamide]	1.6 ± 0.13	38.47 ± 7.98	–
8.17	O=S(=O)(Nc1cnc(Oc2cnc3ccccc3c2)c(Cl)c1)c1ccc(F)cc1F [Example 34, N-(5-Chloro-6-(quinolin-3-yloxy)pyridin-3-yl)-2,4-difluorobenzenesulfonamide]	1.7 ± 0.08	43.59 ± 4.77	Normalization with control (plasma glucose) ([2]; 50 mpk bid): 57.2 ± 19.1
